What all share (format): cell-based
For one assay, the system named is HCT116. As to the kind of experiment: Cytostatic/cytotoxic MTT assay, HCT116. Particulars: Homo sapiens, HCT-116; 72 h incubation; read-out: MTT, IC50 HCT116. The text has this: (§1) Unless otherwise stated, all cells were purchased from the […] (ATCC). The CCRF-CEM line is derived from T lymphoblastic leukemia, evincing high chemosenzitivity, K562 represent cells from a […] patient sample with bcr-abl translocation, HCT116 is colorectal tumor cell line and its p53 gene knock-down counterpart (HCT116p53−/−, Horizon Discovery, UK) is a model of human cancers with p53 inactivation frequently associated with poor prognosis, A549 cell line is lung adenocarcinoma. The daunorubicin resistant subline of CCRF-CEM cells (CEM-DNR bulk) and paclitaxel resistant subline K562-TAX were selected in our laboratory by cultivation of maternal cell lines in increasing concentrations of daunorubicine or paclitaxel, respectively. The CEM-DNR cells overexpress mrp-1 and mdr-1 genes, while K562-TAX cells overexpress mdr-1 only. Both proteins belong to the family of ABC transporters and are involved in the primary and/or acquired multidrug resistance phenomenon (ref.: Gottesman, M. M.; Fojo, T.; Bates, S. E. Multidrug resistance in cancer: role of ATP-dependent transporters. Nat. Rev. Cancer. 2002, 2, 48-58. (b) Noskova, V.; Dzubak, P.; Kuzmina, G.; Ludkova, A.; Stehlik, D.; Trojanec, R.; Janostakova, A.; Korinkova, G.; Mihal, V.; Hajduch, M. In vitro chemoresistance profile and expression/function of MDR associated proteins in resistant cell lines derived from CCRF-CEM, K562, A549 and MDA MB 231 parental cells. Neoplasma 2002, 49, 418-425). Non-malignant MRC-5 and BJ cells, derived from normal human fibroblasts, were used as controls. The cells were maintained in Nunc/Corning 80 cm^2 plastic tissue culture flasks and cultured in cell culture medium (DMEM/RPMI 1640 with 5 g/L glucose, 2 mM glutamine, 100 U/mL penicillin, 100 µg/mL streptomycin, 10% fetal calf serum, and NaHCO3). Cell suspensions were prepared and diluted according to the particular cell type and the expected target cell density (25,000-30,000 cells/well based on cell growth characteristics). Cells were added by pipette (80 L) into 96-well microtiter plates. Inoculates were allowed a pre-incubation period of 24 h at 37° C. and 5% CO2 for stabilization. Four-fold dilutions, in 20-L aliquots, of the intended test concentration were added to the microtiter plate walls at time zero. All test compound concentrations were examined in duplicate. Incubation of the cells with the test compounds lasted for 72 h at 37° C., in a 5% CO2 atmosphere at 100% humidity. At the end of the incubation period, the cells were assayed using MTT. Aliquots (10 L) of the MTT stock solution (5 mg/ml) were pipetted into each well and incubated for another 1-4 h. After this incubation period the formazan produced was dissolved by addition of 100 µL/well of 10% aq SDS (pH 5.5), followed by a further incubation at 37° C. overnight. The optical density was measured at 540 nm. The IC50 value, the drug concentration inhibiting the cell growth by 50%, was calculated from appropriate dose-response curves.
(§2) In vitro cytotoxic/cytostatic activity final nucleosides 1-5 was initially evaluated against […] cell lines derived from human solid tumors including lung (A549 cells) and colon (HCT116 and HCT116p53−/−) carcinomas, as well as leukemia cell lines (CCRF-CEM, CEM-DNR, K562 and K562-TAX) and, for comparison, non-malignant BJ and MRC-5 fibroblasts. Concentrations inhibiting the cell growth by 50% (IC50) were determined using a quantitative metabolic staining with 3-(4,5-dimethylthiazol-2-yl)-2,5-diphenyltetrazolium bromide (MTT) (ref.: Denizot, F.; Lang, R. Rapid colorimetric assay for cell growth and survival: Modifications to the tetrazolium dye procedure giving improved sensitivity and reliability. J. Immunol. Meth. 1986, 89, 271-277) following a 3-day treatment.
(§3) Multidrug resistance is a major therapeutic problem in cancer chemotherapy. […]

The subject of a further assay is HL60. As to the kind of experiment: XTT cytotoxicity assay, HL-60. Particulars: Homo sapiens, HL-60; 72 h incubation; read-out: XTT, IC50 HL60. The procedure:
(§4) HL-60, Hela S3 and HepG2 cell lines (ATCC) were grown in RPMI-1640 or DMEM medium supplemented with 10% fetal calf serum, […] of streptomycin, 200 U/mL of penicillin G and 4 mM glutamine in a humidified atmosphere containing 5% CO2 at 37° C. Sensitivity of these cell lines to the synthesized compounds was assessed with the use of XTT cell proliferation kit II (Roche Diagnostics GmbH, Mannheim, Germany) according to the manufacturer's instructions. Briefly, cells were seeded in a 96-well plate at a density of 10,000 cells per well (90 μL). After 24 h, 10 μL of the tested compounds were added to the culture media at desired concentration range and incubated for 72 h. After that 50 μL of the XTT solution was added (1 mg/mL XTT+0.383 mg/mL N-methyl dibenzopyrazine methyl sulfate). The absorbance was recorded at 495 nm following a 2 h-incubation with the dye. IC50 values were determined by non-linear regression method using GraphPad Prism version 5.00 for Windows (GraphPad Software, La Jolla, Calif., USA).
(§5) In addition, the anti-proliferative effect was tested against a human T-lymphoblastic leukemia line CCRF-CEM, promyelocytic leukemia HL-60 and cervical carcinoma HeLa S3 growing in liquid suspension. Cell viability was determined following a 3-day incubation using 2,3-bis-(2-methoxy-4-nitro-5-sulfophenyl)-2H-tetrazolium-5-carboxanilide (XTT) assay (ref.: Scudiero, D. A.; Shoemaker, R. H.; Paull, K. D.; Monks, A.; Tierney, S.; Nofziger, T. H.; Currens, M. J.; Seniff, D.; Boyd M. R. Evaluation of a Soluble Tetrazolium/Formazan Assay for Cell Growth and Drug Sensitivity in Culture Using Human and Other Tumor Cell Lines. Cancer Res. 1988, 48, 4827-4833).
A general note: Tetrazolium dyes change colour on reduction, which living cells bring about.

In a further assay the test system is CCRF-CEM. The assay can be described thus: Cytostatic/cytotoxic MTT assay, CCRF-CEM. As to conditions: Homo sapiens, 72 h incubation, read-out: MTT, IC50 CCRF-CEM.
From the text: as §1, §2

A further assay relates to CEM-DNR-bulk. As to the kind of experiment: Cytostatic/cytotoxic MTT assay, CEM-DNR-bulk. As to conditions: Homo sapiens; daunorubicin resistant subline, 72 h; read-out: MTT, IC50 CEM-DNR-bulk.
From the text: as §1, §2, §3

Another assay deals with BJ. As to the kind of experiment: Cytostatic/cytotoxic MTT assay, BJ fibroblasts. As to conditions: Homo sapiens, non-malignant fibroblasts, 72 h, read-out: MTT, IC50 BJ.
From the text: as §1, §2

The test system of a further assay is HeLa S3. As to the kind of experiment: XTT cytotoxicity assay, HeLa S3. As to conditions: Homo sapiens, HeLa S3; 72 h incubation; read-out: XTT, IC50 HeLa S3. On the procedure:
as §4, §5

The structures appear in SMILES notation. pIC50: −log10 of the molar value.

The pIC50 is the negative decadic logarithm of the IC50, by convention in mol/L. Take `COc1ncnc2c1c(-c1ccco1)cn2[C@@H]1O[C@H](CO)[C@@H](O)[C@H]1O` [Compound 1a, 5-(Furan-2-yl)-4-methoxy-7-(β-D-ribofuranosyl)-7H-pyrrolo[2,3-d]pyrimidine]: the pIC50 in the assay on HCT116 is 7.40; with HL60, 7.00; in the assay with CCRF-CEM, 7.70; in the assay on CEM-DNR-bulk, 6.80; in the assay with BJ, 6.37; with HeLa S3 it was 5.99.

For the compound `COc1ncnc2c1c(-c1ccoc1)cn2[C@@H]1O[C@H](CO)[C@@H](O)[C@H]1O` [Compound 1b, 5-(Furan-3-yl)-4-methoxy-7-(β-D-ribofuranosyl)-7H-pyrrolo[2,3-d]pyrimidine], the pIC50 was 6.96 in the assay on HCT116; 6.82 with HL60; 6.96 in the assay on CCRF-CEM; less than 4.70 in the assay on CEM-DNR-bulk; 4.54 in the assay on BJ; 5.75 with HeLa S3.

Consider `COc1ncnc2c1c(-c1cccs1)cn2[C@@H]1O[C@H](CO)[C@@H](O)[C@H]1O` [Compound 1c, 4-Methoxy-7-(β-D-ribofuranosyl)-5-(thiophen-2-yl)-7H-pyrrolo[2,3-d]pyrimidine], for which the pIC50 was 7.10 in the assay on HCT116; 7.10 in the assay on HL60; 7.05 in the assay on CCRF-CEM; 4.92 in the assay on CEM-DNR-bulk; 4.20 in the assay on BJ; 5.75 with HeLa S3.

Consider `COc1ncnc2c1c(-c1ccsc1)cn2[C@@H]1O[C@H](CO)[C@@H](O)[C@H]1O` [Compound 1d, 4-Methoxy-7-(β-D-ribofuranosyl)-5-(thiophen-3-yl)-7H-pyrrolo[2,3-d]pyrimidine], for which the pIC50 in the assay on HCT116 was 6.92; with HL60, 6.89; in the assay on CCRF-CEM, 5.59; in the assay on CEM-DNR-bulk, 5.12; in the assay on BJ, 4.19; in the assay with HeLa S3, 5.47.

Regarding `COc1ncnc2c1c(-c1ccccc1)cn2[C@@H]1O[C@H](CO)[C@@H](O)[C@H]1O` [Compound 1e, 4-Methoxy-5-phenyl-7-(β-D-ribofuranosyl)-7H-pyrrolo[2,3-d]pyrimidine], the pIC50 is less than 4.70 in the assay on HCT116; less than 4.70 with HL60; less than 4.70 with CCRF-CEM; less than 4.70 in the assay on CEM-DNR-bulk; less than 4.00 in the assay with BJ; less than 4.70 with HeLa S3.

As for `COc1ncnc2c1c(-c1cc3ccccc3o1)cn2[C@@H]1O[C@H](CO)[C@@H](O)[C@H]1O` [Compound 1f, 5-(Benzofuran-2-yl)-4-methoxy-7-(β-D-ribofuranosyl)-7H-pyrrolo[2,3-d]pyrimidine], the pIC50 in the assay with HCT116 is 4.86; in the assay on HL60 it was 5.35; in the assay on CCRF-CEM, 5.27; in the assay with CEM-DNR-bulk, 4.97; with BJ, 4.65; in the assay on HeLa S3 it was 5.03.

As to `C#Cc1cn([C@@H]2O[C@H](CO)[C@@H](O)[C@H]2O)c2ncnc(OC)c12` [Compound 1g, 5-Ethynyl-4-methoxy-7-(β-D-ribofuranosyl)-7H-pyrrolo[2,3-d]pyrimidine], the pIC50 with HCT116 is 5.39; in the assay on HL60, 6.72; in the assay on CCRF-CEM, less than 4.70; in the assay on CEM-DNR-bulk, 5.46; in the assay with BJ, 4.01; in the assay with HeLa S3 it was 5.76.

Turning to `COc1ncnc2c1c(I)cn2[C@@H]1O[C@H](CO)[C@@H](O)[C@H]1O` [Compound 1h, 5-iodo-4-methoxy-7-(β-D-ribofuranosyl)-7H-pyrrolo[2,3-d]pyrimidine, reference compound], the pIC50 in the assay with HCT116 is less than 4.70; with HL60 it was 5.64; with CCRF-CEM, 5.94; in the assay on CEM-DNR-bulk, less than 4.70; in the assay with BJ, 4.04; in the assay on HeLa S3, 4.84.

For the compound `CSc1ncnc2c1c(-c1ccco1)cn2[C@@H]1O[C@H](CO)[C@@H](O)[C@H]1O` [Compound 2a, 5-(Furan-2-yl)-4-methylsulfanyl-7-(β-D-ribofuranosyl)-7H-pyrrolo[2,3-d]pyrimidine], the negative logarithm of the IC50 (pIC50) in the assay on HCT116 is 7.70; in the assay with HL60, 6.92; with CCRF-CEM, 7.30; in the assay on CEM-DNR-bulk, 6.64; in the assay with BJ, 6.59; in the assay with HeLa S3, 6.27.

In the case of `CSc1ncnc2c1c(-c1ccoc1)cn2[C@@H]1O[C@H](CO)[C@@H](O)[C@H]1O` [Compound 2b, 5-(Furan-3-yl)-4-methylsulfanyl-7-(β-D-ribofuranosyl)-7H-pyrrolo[2,3-d]pyrimidine], the pIC50 in the assay with HCT116 was 7.40; in the assay with HL60, 6.44; in the assay on CCRF-CEM, 4.85; in the assay on CEM-DNR-bulk, less than 4.70; in the assay on BJ it was 4.01; in the assay on HeLa S3, 5.27.

For the compound `CSc1ncnc2c1c(-c1cccs1)cn2[C@@H]1O[C@H](CO)[C@@H](O)[C@H]1O` [Compound 2c, 4-Methylsulfanyl-7-(β-D-ribofuranosyl)-5-(thiophen-2-yl)-7H-pyrrolo[2,3-d]pyrimidine], the pIC50 is less than 4.70 with HCT116; 5.95 in the assay on HL60; less than 4.70 in the assay with CCRF-CEM; less than 4.70 with CEM-DNR-bulk; 4.01 in the assay with BJ; 5.71 with HeLa S3.

For `CSc1ncnc2c1c(-c1ccsc1)cn2[C@@H]1O[C@H](CO)[C@@H](O)[C@H]1O` [Compound 2d, 4-Methylsulfanyl-7-(β-D-ribofuranosyl)-5-(thiophen-3-yl)-7H-pyrrolo[2,3-d]pyrimidine], the pIC50 in the assay on HCT116 is less than 4.70; with HL60, 5.34; in the assay with CCRF-CEM, less than 4.70; in the assay with CEM-DNR-bulk, less than 4.70; with BJ, 4.02; in the assay on HeLa S3, less than 4.70.

Source of the values: patent publication US9586986B2, “Substituted 7-deazapurine ribonucleosides for therapeutic uses” (Institute of Organic Chemistry and Biochemistry ASCR, v.v.i., priority 2014, dated 2017).
